Source: patent publication EP2111861A1, “Compositions of phosphodiesterase type IV inhibitors” (Ranbaxy Laboratories Limited, priority 2008, dated 2009)

Assays:
[1] = system: TNF-α release from human PBMCs; test: Cell based Assay for TNF-α release, PDE IV inhibitor in combination with p38 MAP Kinase inhibitors; conditions: inhibiting TNF-α release from human PBMCs, LPS stimulated, compound alone
Method: Blood was collected in heparin or EDTA vacutainers from healthy human volunteers and Peripheral Blood Mononuclear Cells isolated using Ficoll Hypaque gradient. The cells were resuspended in serum free RPMI 1640 medium at a concentration of 2 million cells/ml.). 1 ml of this cell suspension was co-incubated with 20 µl of compound, alone or in combination, for 10 min in a flat bottom 96 well microtiter plate. Compounds were dissolved in DMSO initially and diluted in medium for a final concentration of 0.2 % DMSO. LPS (1 µg/ml, final concentration) was then added at a volume of 10 µl per well. After 30 min, 20 µl of fetal calf serum (final concentration of 10 %) was added to each well. Cultures were incubated overnight at 37 °C in an atmosphere of 5 % CO2 and 95 % air. Supernatant were then removed and tested by ELISA for TNF-α release using a commercial kit (e.g. BD Biosciences). The level of TNF-α in treated wells was compared with the vehicle treated controls and inhibitory potency of compound was expressed as IC50 values calculated from the percent inhibition values by using Graph pad prism. Percent inhibition = 100-(Percent TNF-α drug treated)/(Percent TNF-α in vehicle treated) × 100 [formula]

[2] = system: LPS induced rat neutrophilia; test: LPS induced rat neutrophilia model, PDE IV inhibitor in combination with corticosteroids; format: in vivo; conditions: Compound No. 266 in combination with corticosteroid (not named), intratracheal, neutrophil count in BAL
Method: PDE-4 inhibitor and corticosteroids were instilled intratracheally under anesthesia at different doses, either alone or in combination. LPS challenge: One hour after drug instillation, (LPS 20 µg/200 µl of PBS) was instilled intratracheally. One group of vehicle treated rats were instilled with 200 µl of phosphate buffered saline (PBS) and served as negative control. Bronchoalveolar lavage (BAL): Two hours after LPS challenge, bronchoalveolar lavage was performed; the animals were sacrificed using thiopentone sodium (150 mg/kg/i.p.). Trachea was cannulated and BAL was performed using Hank's Buffer salt solution (HBSS) (5 ml x 10 times). The bronchoalveolar lavage fluid was centrifuged at 800 g for 5 min, at 4°C and the pellet was resuspended in 1 ml HBSS. Total leukocyte count was performed in the resuspended sample by using hemocytometer. A cytocentrifuge preparation was made using the resuspended bronchoalveolar lavage fluid on a glass slide, stained with Leishmann's stain and then differential leukocyte counts was performed for computation of neutrophil. Statistical significance of each parameter in different treatment groups was determined with respective to vehicle control group using one-way analysis of variance followed by Dunnett's 't' test for multiple comparison. A p level of ≤ 0.05 was considered to be statistically significant.

[3] = system: LPS induced airway hyperreactivity; test: LPS induced airway hyperreactivity (PC100, Penh), PDE-IV inhibitor in combination with muscarinic receptor antagonist; format: in vivo, Wistar rats; conditions: intratracheal
Method: MRA (1ng/kg to 1mg/kg) and PDE-IV inhibitor (1ng/kg to 1mg/kg) were instilled intratracheally under anesthesia either alone or in combination.
Wistar rats weighing 200±20gm were used in the study. Rats had free access to food and water. On the day of experiment, animals were exposed to lipopolysaccharide (LPS, 100µg/ml) for 40 min. One group of vehicle treated rats was exposed to phosphate buffered saline (PBS) for 40 min. four hours after LPS/PBS exposure, animals were placed inside a whole body plethysmograph (Buxco Electronics, USA) and exposed to PBS or increasing concentration of acetylcholine (1, 6, 12, 24, 48 and 96 mg/ml) aerosol until Penh values (index of airway resistance) of rats attained 2 times the value (PC-100) seen with PBS alone. The respiratory parameters were recorded online using Biosystem XA software, (Buxco Electronics, USA). Penh, at any chosen dose of acetylcholine was expressed as percent of PBS response and using a nonlinear regression analysis PC100 (2 folds of PBS value) values were computed. Percent inhibition was computed using the following formula. % Inhibition = (PC100_LPS -PC100_TEST)/(PC100_LPS -PC100_PBS) × 100 [formula] Where, PC100LPS = PC100 in vehicle treated and LPS challenged group PC100TEST = PC100 in group treated with a given dose of test compound PC100PBS = PC100 in vehicle treated group challenged with PBS

TNF-α release = test: Cell based Assay for TNF-α release, PDE IV inhibitor in combination with corticosteroids; conditions: Compound No. 266 in combination with corticosteroid (not named), human PBMC
Method: Blood was collected in heparin or EDTA vacutainers from healthy human volunteers and Peripheral Blood Mononuclear Cells isolated using Ficoll Hypaque gradient. The cells were resuspended in serum free RPMI 1640 medium at a concentration of 2 million cells/ml). 1 ml of this cell suspension was co-incubated with 20 µl of compound, alone or in combination (PDE IV inhibitor and corticosteroid), for 10 min in a flat bottom 96 well microtiter plate The aforesaid compounds were dissolved in DMSO initially and diluted in medium for a final concentration of 0.2 % DMSO. LPS ([…], final concentration) was then added at a volume of 10 µl per well. After 30 min, 20 µl of fetal calf serum (final concentration of 10 %) was added to each well. Cultures were incubated overnight at 37 °C in an atmosphere of 5 % CO2 and 95 % air. Supernatant was then removed and tested by ELISA for TNF-α release using a commercial kit (e.g. BD Biosciences). The level of TNF-α in treated wells was compared with the vehicle treated controls and inhibitory potency of compound was expressed as IC50 values calculated by from percent inhibition values using Graph pad prism. […] Percent inhibition = 100-(Percent TNF-α drug treated)/(Percent TNF-α in vehicle treated) × 100 [formula]

[4] = Compound No. 266 in combination with Tiotropium (MRA), PC100

## COc1cc(C2=NO[C@]3(CCOC3)C2)ccc1OC(F)F (single isomer, unassigned) [Compound No. 266, (5S or 5R)-3-[4-(Difluoromethoxy)-3-methoxyphenyl]-1,7-dioxa-2-azaspiro[4.4]non-2-ene]
[1]
  IC50: 76 nM
[2]
  Combination Index: 0.58
  synergy with corticosteroids: synergy
[3]; 10 µg/kg
  effect when administered alone: ineffective
[3]; [4]
  Combination Index: 0.26
  synergy with Tiotropium (MRA): synergy
TNF-α release
  Combination Index: 0.21
  synergy with corticosteroids: synergy

## Cc1ccccc1-c1cc2cnc(NC3CCN(S(C)(=O)=O)CC3)nc2n([C@H]2CCOC2)c1=O [Compound No. 44a, 6-(2-Methylphenyl)-2-{[1-(methylsulfonyl)piperidin-4-yl]amino}-8-[(3S)-tetrahydrofuran-3-yl]pyrido[2,3-d]pyrimidin-7(8H)-one]
[1]; PBMC
  IC50: 3 nM

## Cc1ccccc1-c1cc2cnc(NC3CCN(S(C)(=O)=O)CC3)nc2n([C@@H]2CCOC2)c1=O [Compound No. 46a, 6-(2-Methylphenyl)-2-{[1-(methylsulfonyl)piperidin-4-yl]amino}-8-[(3R)-tetrahydrofuran-3-yl]pyrido[2,3-d]pyrimidin-7(8H)-one]
[1]; PBMC
  IC50: 2 nM

## Cc1ccccc1-c1cc2cnc(NC3CCN(C(=O)NC(C)C)CC3)nc2n([C@@H]2CCOC2)c1=O [Compound No. 47a, N-Isopropyl-4-({6-(2-methylphenyl)-7-oxo-8-[(3R)-tetrahydrofuran-3-yl]-7,8-dihydropyrido[2,3-d]pyrimidin-2-yl}amino)piperidine-1-carboxamide]
[1]; PBMC
  IC50: 22 nM

## Cc1n(CCCOC(=O)[C@](O)(c2ccccc2)[C@@H]2CCC(F)(F)C2)cc[n+]1Cc1ccccc1.[Br-] [Compound No. 104aa, 3-Benzyl-1-[3-({(2R)-2-[(1R)-3,3-difluorocyclopentyl]-2-hydroxy-2-phenylacetyl}oxy)propyl]-2-methyl-1H-imidazol-3-ium bromide]
[3]; 10 ng/kg
  effect when administered alone: not effective

## O=c1ncn2nc(Sc3ccc(F)cc3F)ccc2c1-c1c(Cl)cccc1Cl [Vx-745, reference compound]
[1]; PBMC
  IC50: 14 nM
